Test system: corneas of Sprague-Dawley rats
Settings: rat, in vivo
Experimental: For assessment of in vivo biocompatibility, animals were cared for and experiments conducted in accordance with protocols approved by the Animal Care and Use Committee of the Johns Hopkins University. Protocols are also in accordance with the ARVO Statement for the Use of Animals in Ophthalmic and Vision Research. […] Prior to implantation, rats were intraperitoneally anesthetized with a solution of Ketamine:Xylazine (75:5 mg/kg, Sigma Aldrich) and a drop of 0.5% proparacaine hydrochloride ophthalmic solution (Bausch & Lomb Inc., Tampa, Fla.) was applied to the cornea. Following implantation, the rats were evaluated for signs of infection every day for seven days. The rats were then euthanized and eyes enucleated, fixed in formalin (Sigma Aldrich) for 24 h, embedded in paraffin, cross sectioned, and stained with hematoxylin and eosin for histological evaluation.

Substance: nylon
- tissue reaction (histological analysis): no obvious signs of neovascularization or inflammation
